Test results as given in patent US4328134A, “Anorexigenic peptides” (priority 1980, dated 1982).

Tests used:
mice [1] = settings: mice fasted for 17 hours; cited from earlier work
dogs = test: sham-feeding in dogs with esophageal, gastric and pancreatic fistulae: gastric and pancreatic secretion
[2] = in vivo; cited from earlier work
mice [3] = settings: cited from earlier work

## secretin
Mice [1]
  effect on food intake: ineffective

## bovine serum albumin: bovine serum albumin
Mice [1]
  effect on food intake: ineffective

## NCCc1c[nH]cn1 [histamine]
dogs; 320 mcg/kg/hour of histamine
  maximal acid output: 13.55±1.8 mEq/15 mins.

## caerulein
dogs; 0.5 mcg/kg/hour of caerulein
  maximal pancreatic protein secretion: 650±86 mg/15 mins.

## O=C[C@H](O)[C@@H](O)[C@H](O)[C@H](O)CO [glucose]
Mice [1]
  effect on food intake: ineffective

## H-(pyro)-Glu-His-GlyOH [appetite-retarding peptide]
[2]
  acute effect on blood glucose: no acute effect
  acute effect on serum insulin levels: no acute effect
Mice [3]; 12 nmole daily for 20 days, dropped from a mean of 35 g
  body weight, minimum: 24 g
Mice [3]; 12 nmole injected daily for 20 days, reduced from 5.7
  food consumption: 3.0 g per day
Mice [3]; 12 nmole injected daily for 20 days
  duration of reduced food consumption: about 6 months

## glucagon
Mice [1]
  effect on food intake: ineffective
